Tests used:
Assay in all cases: microbe, parasite or virus in culture
Format in all cases: cell-based, HIV-1
[1] = system: NLRepRlucP373S recombinant wild type (WT) virus; details: Human immunodeficiency virus 1, MT2, read-out: WT EC50
Procedure: (§1) Cells. MT-2 cells and 293T cells were obtained from the NIH AIDS Research and Reference Reagent Program. Cell lines were sub-cultured twice a week in either RPMI 1640 (MT-2) or DMEM (293T, HeLa) media supplemented with 10% heat inactivated fetal bovine serum (FBS), 100 units/mL of penicillin G and 100 μg/mL of streptomycin. The DMEM medium was additionally supplemented with 10 mM HEPES buffer, pH 7.55, 2 mM L-glutamine and 0.25 μg/mL of amphotericin B.
(§2) Viruses. NLRepRluc virus contains the Renilla luciferase marker in place of the viral nef gene. The proviral plasmid pNLRepRluc was constructed at Bristol-Myers Squibb, starting from a proviral NL4-3 clone (B subtype) that was obtained from the NIH AIDS Research and Reference Reagent Program. The parental recombinant wild type (WT) virus (NLRepRlucP373S) was derived from NLRepRluc and contains the additional substitution of P373 for serine in Gag (within the SP1 spacer), the most common 373 variation in subtype B. Other recombinant viruses (A364V, V370A/ΔT371 and the “T3325 triple” (T332S/V362I+HIV-1 protease R41G)) were generated by site-directed mutagenesis of plasmid pNLRepRlucP373S to introduce those amino acid substitutions in Gag and protease. Recombinant virus DNA was then used to generate virus stocks by transfection of 293T cells (Lipofectamine PLUS kit, Invitrogen). Titers of virus stocks were determined using a luciferase assay (Dual-Luciferase® Reporter Assay System, Promega, Milwaukee, Wis., USA) endpoint.
(§3) Multiple cycle drug susceptibility assay. Pellets of MT-2 cells were infected with NLRepRlucP373S Gag site-directed viruses, where initial inocula of the reporter strains were normalized using equivalent endpoint luciferase activity signals. Such cell-virus mixtures were resuspended in medium, incubated for 1-hour at 37° C./CO2, and added to compound containing 96-well plates at a final cell density of 10,000 cells per well. The test compounds were 3-fold serially diluted in 100% DMSO, and assayed at a final DMSO concentration of 1%. After 4-5 day incubation at 37° C./CO2, virus yields were determined by Renilla luciferase activity (Dual-Luciferase® Reporter Assay System, Promega). The endpoint luminescence was detected on a Wallac Trilux (PerkinElmer).
(§4) The 50% inhibitory concentrations (EC50S) were calculated by using the exponential form of the median effect equation where Percent Inhibition=1/[1+(EC50/drug conc.^m], where m is a parameter that reflects the slope of the concentration-response curve. Background was taken as the residual signal observed upon inhibition at the highest concentration of a control protease inhibitor, NFV (3 μM).
as §4, with “The 90%” for “The 50%”, “concentrations (EC90S)” for “concentrations (EC50S)”, “where ECF=[(F/(100−F)]^1/H·EC50,” for “where Percent Inhibition=1/[1+(EC50/drug conc.^m],”, “where H” for “where m”

[2] = system: A364V site directed mutant virus; details: Human immunodeficiency virus 1, MT2, read-out: A364V EC50
Procedure: as §1, §2, §3
(§5) HIV-1 NL4-3 expressing Renilla luciferase gene was converted to the gag V370A/ΔT371 virus by site directed mutagenesis. A364V is a site directed mutant.
(§6) All three recombinant viruses were used as described above in the HIV cell culture assay for the NL4-3 virus.

gag V370A/ΔT371 virus = details: Human immunodeficiency virus 1, MT2, read-out: V370A/ΔT371 EC50
Procedure: as §1, §2, §3, §5, §6

[3] = system: T332S/V362I/Pr R41G virus; details: Human immunodeficiency virus 1, MT2, read-out: T332S/V362I/pr41G EC50
Procedure: as §1, §2, §3
T332sN362I/Pr R41G (N14.3, B Clade) virus′ was obtained as follows: Selection for resistance of HIV-1 strain […] virus with the HIV maturation inhibitor (MI) compound
At passage 8 virus was harvested and sequenced.
as §6

Row | Compound | EC50 [1] [nM] | EC50 [2] [nM] | EC50 (gag V370A/ΔT371 virus) [nM] | EC50 [3] [nM]
1 | C=C(C)[C@@H]1CC[C@]2(NCCN3CCS(=O)(=O)CC3)CC[C@]3(C)[C@H](CC[C@@H]4[C@@]5(C)CC=C(C6=CCC(COc7nnnn7C)(C(=O)O)CC6)C(C)(C)[C@@H]5CC[C@]43C)[C@@H]12 (some centres unmarked) [Example 13] | 2 | 24 | 7 | 7
2 | C=C(C)[C@@H]1CC[C@]2(NCCN3CCS(=O)(=O)CC3)CC[C@]3(C)[C@H](CC[C@@H]4[C@@]5(C)CC=C(C6=CCC(COc7nsc(=O)[nH]7)(C(=O)O)CC6)C(C)(C)[C@@H]5CC[C@]43C)[C@@H]12 (stereo partly drawn) [Example 14, 4-((1R,3aS,5aR,5bR,7aR,11aS,11bR,13aR,13bR)-3a-((2-(1,1-dioxidothiomorpholino)ethyl)amino)-5a,5b,8,8,11a-pentamethyl-1-(prop-1-en-2-yl)-2,3,3a,4,5,5a,5b,6,7,7a,8,11,11a,11 b,12,13,13a,13b-octadecahydro-1H-cyclopenta[a]chrysen-9-yl)-1-(((5-oxo-4,5-dihydro-1,2,4-thiadiazol-3-yl)oxy)methyl)cyclohex-3-ene-1-carboxylic acid] | 27 | > 50 | > 50 | > 50
3 | C=C(C)[C@@H]1CC[C@]2(NCCN3CCS(=O)(=O)CC3)CC[C@]3(C)[C@H](CC[C@@H]4[C@@]5(C)CC=C(C6=CCC(COc7nccs7)(C(=O)O)CC6)C(C)(C)[C@@H]5CC[C@]43C)[C@@H]12 (stereo partly drawn) [Example 15, 4-((1R,3aS,5aR,5bR,7aR,11aS,11bR,13aR,13bR)-3a-((2-(1,1-dioxidothiomorpholino)ethyl)amino)-5a,5b,8,8,11a-pentamethyl-1-(prop-1-en-2-yl)-2,3,3a,4,5,5a,5b,6,7,7a,8,11,11a,11b,12,13,13a,13b-octadecahydro-1H-cyclopenta[a]chrysen-9-yl)-1-((thiazol-2-yloxy)methyl)cyclohex-3-ene-1-carboxylic acid] | 4 | 2380 | 390 | 390
4 | C=C(C)[C@@H]1CC[C@]2(NCCN3CCS(=O)(=O)CC3)CC[C@]3(C)[C@H](CC[C@@H]4[C@@]5(C)CC=C(C6=CCC(COc7cnnn7-c7ccccc7)(C(=O)O)CC6)C(C)(C)[C@@H]5CC[C@]43C)[C@@H]12 (some centres unmarked) [Example 16] | 5 | 32 | 30 | 30
5 | C=C(C)[C@@H]1CC[C@]2(NCCN3CCS(=O)(=O)CC3)CC[C@]3(C)[C@H](CC[C@@H]4[C@@]5(C)CC=C(C6=CCC(COc7cnnn7C(C)C)(C(=O)O)CC6)C(C)(C)[C@@H]5CC[C@]43C)[C@@H]12 (stereo partly drawn) [Example 17, 4-((1R,3aS,5aR,5bR,7aR,11aS,11bR,13aR,13bR)-3a-((2-(1,1-dioxidothiomorpholino)ethyl)amino)-5a,5b,8,8,11a-pentamethyl-1-(prop-1-en-2-yl)-2,3,3a,4,5,5a,5b,6,7,7a,8,11,11a,11b,12,13,13a,13b-octadecahydro-1H-cyclopenta[a]chrysen-9-yl)-1-(((1-isopropyl-1H-1,2,3-triazol-5-yl)oxy)methyl)cyclohex-3-ene-1-carboxylic acid] | 3 | > 50 | 15 | 15
6 | C=C(C)c1cc(OCC2(C(=O)O)CC=C(C3=CC[C@]4(C)[C@H]5CC[C@@H]6[C@H]7[C@H](C(=C)C)CC[C@]7(NCCN7CCS(=O)(=O)CC7)CC[C@@]6(C)[C@]5(C)CC[C@H]4C3(C)C)CC2)ns1 (some centres unmarked) [Example 18] | 2 | 11 | < 50 | 14
7 | C=C(C)[C@@H]1CC[C@]2(NCCN3CCS(=O)(=O)CC3)CC[C@]3(C)[C@H](CC[C@@H]4[C@@]5(C)CC=C(C6=CCC(COc7cccnn7)(C(=O)O)CC6)C(C)(C)[C@@H]5CC[C@]43C)[C@@H]12 (stereo partly drawn) [Example 19, 4-((1R,3aS,5aR,5bR,7aR,11aS,11bR,13aR,13bR)-3a-((2-(1,1-dioxidothiomorpholino)ethyl)amino)-5a,5b,8,8,11a-pentamethyl-1-(prop-1-en-2-yl)-2,3,3a,4,5,5a,5b,6,7,7a,8,11,11a,11 b,12,13,13a,13b-octadecahydro-1H-cyclopenta[a]chrysen-9-yl)-1-((pyridazin-3-yloxy)methyl)cyclohex-3-ene-1-carboxylic acid] | 3 | 36 | 47 | 47
8 | C=C(C)[C@@H]1CC[C@]2(NCCN3CCS(=O)(=O)CC3)CC[C@]3(C)[C@H](CC[C@@H]4[C@@]5(C)CC=C(C6=CC[C@](COc7ccccn7)(C(=O)O)CC6)C(C)(C)[C@@H]5CC[C@]43C)[C@@H]12 [Example 20, (R)-4-((1R,3aS,5aR,5bR,7aR,11aS,11bR,13aR,13bR)-3a-((2-(1,1-dioxidothiomorpholino)ethyl)amino)-5a,5b,8,8,11a-pentamethyl-1-(prop-1-en-2-yl)-2,3,3a,4,5,5a,5b,6,7,7a,8,11,11a,11b,12,13,13a,13b-octadecahydro-1H-cyclopenta[a]chrysen-9-yl)-1-((pyridin-2-yloxy)methyl)cyclohex-3-ene-1-carboxylic acid] | < 50 | < 50 | < 50 | < 50
9 | C=C(C)[C@@H]1CC[C@]2(NCCN3CCS(=O)(=O)CC3)CC[C@]3(C)[C@H](CC[C@@H]4[C@@]5(C)CC=C(C6=CC[C@](COc7ccncn7)(C(=O)O)CC6)C(C)(C)[C@@H]5CC[C@]43C)[C@@H]12 [Example 21] | < 50 | < 50 | > 50 | > 50
10 | C=C(C)[C@@H]1CC[C@]2(NCCN3CCS(=O)(=O)CC3)CC[C@]3(C)[C@H](CC[C@@H]4[C@@]5(C)CC=C(C6=CC[C@](COc7ncccc7Cl)(C(=O)O)CC6)C(C)(C)[C@@H]5CC[C@]43C)[C@@H]12 [Example 22] | 5 | 8 | 15 | 15
11 | C=C(C)[C@@H]1CC[C@]2(NCCN3CCS(=O)(=O)CC3)CC[C@]3(C)[C@H](CC[C@@H]4[C@@]5(C)CC=C(C6=CC[C@](COc7ncccc7C#N)(C(=O)O)CC6)C(C)(C)[C@@H]5CC[C@]43C)[C@@H]12 [Example 23, (R)-1-(((3-cyanopyridin-2-yl)oxy)methyl)-4-((1R,3aS,5aR,5bR,7aR,11aS,11bR,13aR,13bR)-3a-((2-(1,1-dioxidothiomorpholino)ethyl)amino)-5a,5b,8,8,11a-pentamethyl-1-(prop-1-en-2-yl)-2,3,3a,4,5,5a,5b,6,7,7a,8,11,11a,11b,12,13,13a,13b-octadecahydro-1H-cyclopenta[a]chrysen-9-yl)cyclohex-3-ene-1-carboxylic acid] | 2 | > 50 | < 50 | 6
